Experimental data reported in publication PMC8825254, “Rational design of Striga hermonthica-specific seed germination inhibitors” (Plant Physiology, 2021).
Where two headings read alike, the source gives them in different places. Blank lines part the entries; values can stand above or below the compound they belong to.

Tests used:
ShHTL7 [1] = molecular target: T1, ShHTL7 (Striga hermonthica, UniProt A0A0M3PNA2); test: YLG hydrolysis competition assay with ShHTL7; type: biochemical
T1 sequence (A0A0M3PNA2 1-271): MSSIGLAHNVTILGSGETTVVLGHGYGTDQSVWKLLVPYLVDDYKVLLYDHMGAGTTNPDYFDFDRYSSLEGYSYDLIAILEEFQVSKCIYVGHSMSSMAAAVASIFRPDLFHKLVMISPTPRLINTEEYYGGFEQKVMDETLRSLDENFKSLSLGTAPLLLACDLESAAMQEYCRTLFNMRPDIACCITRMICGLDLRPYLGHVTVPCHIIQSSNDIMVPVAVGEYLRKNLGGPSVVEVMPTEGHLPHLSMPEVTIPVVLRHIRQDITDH
Protocol: About 0.33 µM of ShHTL7 protein was used to conduct in vitro hydrolysis of YLG (1 µM) as a substrate in a total volume of 100 µL of phosphate-buffered saline (1× PBS) containing 0.1% DMSO in 96-well black plate (Greiner Kremsmünster, Austria; [Tsuchiya et al., 2015]). The hydrolysis of YLG over time and changes in the fluorescence intensity was measured by SpectraMax i3 (Molecular Devices, San Jose, CA, USA) using an excitation wavelength of 480 nm and detection wavelength of 520 nm and recorded at 10 min intervals for 2 h. YLG in 1× PBS without protein was used as a control. […] Measurement of the fluorescence was conducted in SpectraMax i3 (Molecular Devices) using the above-mentioned method. The relative fluorescence unit was calculated by subtracting the auto-fluorescence of YLG in the buffer from the fluorescence values of YLG in the presence of a protein. The inhibitory curve and IC50 were determined using https://www.aatbio.com/tools/ic50-calculator website.

OsD14 = molecular target: T2, OsD14 (Oryza sativa subsp. japonica, UniProt Q10QA5); test: YLG hydrolysis competition assay with OsD14; type: biochemical, rice (Oryza sativa)
T2 construct: made in house; host or cells: Escherichia coli BL21 (DE3)
T2 sequence (Q10QA5 1-318): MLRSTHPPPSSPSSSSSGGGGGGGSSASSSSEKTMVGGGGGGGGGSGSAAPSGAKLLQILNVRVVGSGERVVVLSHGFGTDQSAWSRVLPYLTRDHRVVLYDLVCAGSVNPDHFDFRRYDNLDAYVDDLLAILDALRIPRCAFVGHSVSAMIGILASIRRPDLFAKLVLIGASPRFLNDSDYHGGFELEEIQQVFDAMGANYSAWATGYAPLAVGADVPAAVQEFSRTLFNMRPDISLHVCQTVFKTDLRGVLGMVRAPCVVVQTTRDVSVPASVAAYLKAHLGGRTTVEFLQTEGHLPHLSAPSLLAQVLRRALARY

ShHTL7 [2] = molecular target: T1, ShHTL7; test: DSF thermal stability of ShHTL7; type: binding; conditions: for Effect on SYPRO orange fluorescence peak of ShHTL7: 0 to 100 µM, result in words
Protocol: About 10 µM of ShHTL7 purified protein was incubated with various concentrations of KK023-N1, Triton X-100, or KK094 (ranging from 0 to 100 µM) for 30 min. Then SYPRO Orange (reporter dye) was added to 1× final concentration. The reactions were carried out in 25 µL 1× PBs buffer. The assay was performed on CFX96 Real-Time System (BIO-RAD, Hercules, CA, USA) thermal cycler on 96-well quantitative polymerase chain reaction (qPCR) white plate, and the plate was sealed with adhesive qPCR plate seal to prevent samples evaporation ([Bai et al., 2019]). First, samples were heated to 25°C for 1 min followed by linear increase in the temperature ramp from 25°C to 99°C at a rate of 0.5°C/15 s. The change in the protein folding was monitored by the changes in the fluorescence of the reporter dye, and the data were analyzed by the machine software that plots the inflection point of fluorescence against temperature. Data were exported into Excel, and replicates were averaged to generate the graph.

Striga hermonthica seeds = test: Striga seed germination bioassay (seeds from Sudan); type: in vivo; conditions: for Reduction in Striga seed germination compared to the GR24 treatment: 20-40 µM inhibitor
Protocol: Striga seeds were surface sterilized by 20% Sodium hypochlorite (NaClO) for 10 min followed by successive 6 times washing with sterilized MilliQ water. Seeds were kept to dry under the laminar flow cabinet, and ∼50–100 sterilized Striga seeds were spread uniformly on a glass fiber filter paper disc (9 mm). For preconditioning, around 12 discs were put in a petri plate on a filter paper moistened with 3 mL sterilized MilliQ water. Plates were then sealed with parafilm and kept in an incubator for 10 d at 30°C (in dark). After preconditioning, plates were removed from the incubator and dried, and discs were pre-treated with different concentrations (0, 5, 10, 20, 40, 80, 160, 320, and 640 μM) of KK023-N1, KK023-N2, Triton X-100, or KK094 for 24 h. Next day, a combination of the inhibitors (same concentrations) along with GR24 (0.5 nM or 1 nM) was applied, and discs were incubated at 30°C for 24 h. For inhibitory effect of KK023-N1 and -N2 on Striga seeds obtained from Kenya, seeds were treated with (0, 3, 6, 12, 25, 50,100, 200, 400, and 800 μM). After image scanning, germinated and nongerminated seeds were counted and germination rate (%) was calculated by using SeedQuant software ([Braguy et al., 2021)].

[3] = system: Rice WT (cv Nipponbare) seedlings; test: Rice micro tillering assay, WT, hydroponics; type: in vivo, rice (Oryza sativa); conditions: 10, 50 and 100 µM, 2 weeks, result in words
Protocol: (§1) Rice seeds of WT (cv Nipponbare) or SL-deficient mutant (d17), were surface sterilized with 2.5% NaClO and 0.05% of Tween-20 for 10 min, and rinsed 6 times with sterilized MilliQ water. About 30 seeds were placed on sterilized Magenta GA-7 plant culture box containing 0.5% MS medium with 0.4% agar and incubated at 30°C in dark. After 2 d, boxes were moved to a growth chamber and allowed to grow for another 5 d under fluorescent white light (130–180 μM m^−2 s^−1). Equally grown seedlings were transplanted in 50-mL black tubes filled with Hoagland nutrient solution (1 seedling/tube). Seedlings were treated with 10, 50, and 100 µM of each compound (KK023-N1, Triton X-100, and KK094). The compounds were applied twice a week for 2 weeks to test their effects on the growth of WT plants. SL-deficient seedlings (d17) were treated as WT but with the addition of 1 µM GR24. Number of tillers per plant, plant height, and dry biomass were measured at final harvest.

Rice d17 seedlings = test: Rice micro tillering assay, SL-deficient mutant d17 with GR24; type: in vivo, rice (Oryza sativa); conditions: compound with 1.0 µM GR24; result in words
Protocol: as §1

ShHTL5 = ShHTL5 (Striga hermonthica, UniProt A0A0M5I297); test: YLG hydrolysis competition assay with ShHTL5; type: biochemical; conditions: result in words
ShHTL5, sequence (A0A0M5I297 entry or part of it): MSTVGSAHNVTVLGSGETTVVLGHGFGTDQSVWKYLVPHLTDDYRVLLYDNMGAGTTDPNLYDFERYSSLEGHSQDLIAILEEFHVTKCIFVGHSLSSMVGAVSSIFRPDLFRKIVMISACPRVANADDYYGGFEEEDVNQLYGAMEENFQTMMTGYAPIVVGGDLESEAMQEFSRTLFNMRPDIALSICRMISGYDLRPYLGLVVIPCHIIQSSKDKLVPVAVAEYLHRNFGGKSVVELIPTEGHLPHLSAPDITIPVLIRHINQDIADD

[4] = system: Rice seeds (cv Nipponbare); test: Rice germination and seedling growth in response to inhibitors; type: in vivo, rice (Oryza sativa); conditions: result in words
Protocol: Rice seeds (cv Nipponbare) were surface sterilized in 2.5% NaClO and 0.05% of Tween-20 for 10 min, and rinsed 6 times with sterilized MilliQ water. Seeds were imbibed in sterilized water at 30°C for 24 h in the dark. Next day, ∼3 mL of each inhibitor at different concentrations (3, 6, 12, 25, 50, and 100 μM) was added along with 0.5 Murashige and Skoog (MS) medium into 24-well plate, and one imbibed rice seed was placed in each well. The experiment was performed in six replications (one plant/well, n = 6) for each concentration. Nontreated rice seeds in 0.5-MS solution were included as a control. Seeds were allowed to germinate at 30°C in the dark for 48 h for monitoring seeds germination, and seeds were moved to a growth chamber with white fluorescent light (130–180 μM m^−2 s^−1) and12 h:12 h (Light/Dark (L/D)) period at 28°C. After 1 week, length of rice seedlings was measured and recorded, and pictures of seedlings were taken.

ShHTL7 [5] = molecular target: T1, ShHTL7; design: method as in Holbrook-Smith et al., 2016; Yoneyama, 2016; conditions: previously reported, ref Holbrook-Smith et al., 2016, Yoneyama, read-out: IC50, competitive inhibition of ShHTL7-mediated YLG hydrolysis; cited from earlier work
Striga hermonthica = test: Striga emergence study in infested rice pots under greenhouse conditions; type: in vivo, Striga hermonthica on rice cv IAC165; conditions: for Change in Striga emergence compared to mock: Figure 10B; for Rice plant height, change: Striga-infested pots, Figure 10C
Protocol: Approximately 6,000 Striga seeds (20 mg) were weighed, mixed with sand/soil mixture (1:2 ratio), and put into a 3-L perforated plastic pot containing 0.5-L clean sand/soil mixture in the bottom. The pots were kept under greenhouse-controlled conditions at 30°C and kept moist with water for Striga preconditioning for 10 d. Formulated KK023-N1 and Triton X-100 were applied (at 100 mL per pot) at 10 and 100 µM concentration. Then three rice seedlings (cv IAC165, 10 d old) were planted in each pot after 24 h of inhibitor application. All the treatments were applied continuously twice per week for 4 weeks. Water with same amount of solvent (Cyclohexanone+Atlas-G) was used as a control. Pots were irrigated with 200 mL of Hoagland’s nutrient solution with low phosphate (4 µM) when needed. The rice plants were allowed to grow under greenhouse conditions for 10 weeks and the emerged Striga plants were counted from each pot. The height of rice plants was also measured to see impact of Striga infestation on host growth.

[6] = 0.33 µM ShHTL7, 1 µM YLG, read-out: IC50, inhibition of ShHTL7-mediated YLG hydrolysis

Compound: CC1=C[C@H](O/C=C2/C(=O)O[C@@H]3c4ccccc4C[C@H]23)OC1=O [GR24]
- IC50 (ShHTL7 [1]; [6]): 0.27 µM
- IC50 (OsD14; 0.33 µM OsD14, 1 µM YLG, read-out: IC50, inhibition of OsD14-mediated YLG hydrolysis): 2.59 µM
- Decrease of ShHTL7 melting temperature (ShHTL7 [2]): 7 °C
- Melting temperature of ShHTL7 (ShHTL7 [2]; high concentrations of compound, 50°C without): 43 °C

Compound: O=C(N1CCc2ccccc21)n1ccnn1 [KK094]
- IC50 (ShHTL7 [1]): > 25 µM
- Effect on SYPRO orange fluorescence peak of ShHTL7 (ShHTL7 [2]): did not change the fluorescence peak
- Reduction in Striga seed germination (Striga hermonthica seeds; 20 µM inhibitor, GR24 0.5 or 1.0 nM): 50%
- Inhibition of Striga seed germination (Striga hermonthica seeds; 80 µM, result in words): complete inhibition
- inhibition at 100 µM (Striga hermonthica seeds; Striga hermonthica, 100 µM): 100%
- Effect on dry biomass of WT rice [3]: reduction in plant height and dry biomass
- Effect on plant height of WT rice [3]: reduction in plant height
- Effect on tillering of WT rice [3]: significant increase in rice tillering
- Effect on GR24 action on tillering of d17 rice (Rice d17 seedlings): blocked D14, resulting in increased tillering phenotype

Compound: COc1ccc(CCCc2cccc3c2CCN3C(=O)n2nccn2)cc1 [KK023-N2]
- IC50 (ShHTL7 [1]): 2.15 µM
- IC50 (OsD14; Figure 3D-F, mean ± SD, n = 3, no unit printed with values (x-axis µM), read-out: IC50, OsD14-mediated YLG hydrolysis (Figure 3)): > 50 µM
- Effect on YLG hydrolysis by ShHTL5 (ShHTL5): did not influence the YLG hydrolysis
- Reduction in Striga seed germination compared to the GR24 treatment (Striga hermonthica seeds; GR24 0.5 or 1.0 nM): around 42%
- Effect on rice seedling plant height ([4]; all treatments (3-100 µM), 1 week): no effect on plant height was observed
- Effect on rice seed germination ([4]; up to 100 µM): did not detect any effect on seed germination
- Phenotype of treated rice seedlings versus control ([4]; up to 100 µM): did not show any significant phenotypic difference

Compound: CCOC(=O)C1(Cc2cccc(C(F)(F)F)c2)CCN(Cc2ccc(C#CCCO)cc2)CC1 [Soporidine]
- IC50 (ShHTL7 [5]): 12.5 µM

- IC50 (ShHTL7 [1]; [6]): 0.47 µM
- Effect on SYPRO orange fluorescence peak of ShHTL7 (ShHTL7 [2]): reduction in the peak fluorescence
Compound: Triton X-100 [reference compound]
- Reduction in Striga seed germination compared to the GR24 treatment (Striga hermonthica seeds; GR24 0.5 or 1.0 nM): 31%
- Effect on GR24 action on tillering of d17 rice (Rice d17 seedlings): did not block the GR24 effect on rice tillers
- Change in Striga emergence compared to mock (Striga hermonthica; 10 µM): -13%
- Rice plant height, change (Striga hermonthica; 10 µM): -23%
- Change in Striga emergence compared to mock (Striga hermonthica; 100 µM): -25%
- Rice plant height, change (Striga hermonthica; 100 µM): -4%
